This is an account of results in patent publication US20240197700A1, “Methods and Compositions for Treating Lysosomal Storage Disorders” (Sanford Health, priority 2021, published 2024).

Test [1] concerns NCL PNCs. The test can be described thus: LysoTracker signal in Batten disease primary neuronal cultures. In kind it is cell-based, mouse. Here is the method:
Specific experimental details are included in figure legends. In general, after collection and preparation, MEFs and PNCs were dosed with vehicle or semaglutide (10 nM, 100 nM. or 1 μM) on DIV3 and DIV5. On DIV7, cells were exposed to the following dyes: Hoechst 33342 (1:1000 dilution), LysoTracker™ Red DND-99 (1:10,000 dilution), fixed. and imaged. Mice were injected three times per week with vehicle or semaglutide (2.571 μg/mouse, 25.71 μg/mouse) beginning at wean. Body weight was measured at 4, 6, 8, 12, and 16 weeks of age. At 16 weeks of age, Cln3^Δex7/8 mice along with age matched wildtype control mice were CO2 euthanized and intracardially perfused with PBS. Brains were collected and placed on a 1 mm sagittal brain block. Brains were sliced at the midline and 3 mm right of the midline. The 3 mm sagittal piece was flash frozen with −50° C. isopentane and then sectioned on a cryostat at 16 μm and placed on slides. For ASM measurements, slides were counterstained with DAPI. The other hemisphere was fixed in 4% PFA and sectioned at 50 microns on a vibratome. Immunohistochemistry was performed on free-floating sections. For SubC, GFAP, and CD68 immunolabeling, primary antibodies included mitochondrial anti-ATP synthase subunit C (Abcam, ab181243; 1:1000), anti-GFAP (Dako, Z0334; 1:5000), anti-CD68 (AbD Serotec, MCA1957; 1:2000), and secondary antibodies included anti-rabbit biotinylated (Vector Labs, BA-1000 1:1000) and anti-rat (Vector Labs, BA-9400 1:1000). Coverslips were mounted on slides using antifade-mounting media and were stored in the dark before imaging. ASM slides were imaged on a Nikon ECLIPSE™ Ni-E upright microscope with a CoolSNAP™ DYNO camera. Images were extracted from S1BF of the somatosensory cortex, CA3 of the hippocampus, and the VPM/VPL of the thalamus, with multiple images taken of multiple tissues from each animal. IHC slides were imaged and analyzed using an Aperio Digital Pathology Slide Scanner (AT2) and associated software. Images were extracted from the S1BF of the somatosensory cortex, the CA3 of the hippocampus, and the VPM/VPL of the thalamus.
In a further experiment, wild type (WT) and mutant primary neuronal cultures (PNCs) were treated with vehicle or semaglutide (10 nM, 100 nM, 1 μM; see FIG. 19). Cells were plated on in vitro day 0 and dosed with drug-containing media on DIV3 and DIV5. Analysis occurred on DIV7. Concentrations of drug are shown on the x-axis above each image column; genotypes are shown to the left of each row. […] Increasing concentrations of AF38469 are shown along the x-axis.

Test [2] concerns NCL MEFs. The test can be described thus: Autofluorescent storage material (ASM) in Batten disease mouse embryonic fibroblasts. In kind it is cell-based. On the procedure: Specific experimental details are included in figure legends. In general, after collection and preparation, MEFs and PNCs were dosed with vehicle or AF38469 (40 nM, 400 nM. or 4 μM) on DIV3 and DIV5. On DIV7, cells were treated with the following dyes: Hoechst 33342 (1:1000 dilution), LysoTrackerT™ Red DND-99 (1:10,000 dilution), fixed, and imaged. Mice were given vehicle or AF38469 (78.125 μg/ml, 3.125 μg/ml, 0.3125 μg/ml or 0.03125 μg/ml equating approximately to 250 μg/mouse/day, 10 μg/mouse/day, 1 μg/mouse/day, and […], respectively, given a mouse's daily water intake of approximately 3.2 ml per day) in drinking water beginning at wean. Body weight was measured bi-weekly, and a force actimeter test was performed on Cln2^R207X mice at 10 weeks of age. Body weight was measured every month for Cln3^Δex7/8 mice. At 11 and 16 weeks of age, respectively, Cln2^R207X and Cln3^Δex7/8 mice along with age matched wild type control mice were CO2 euthanized and intracardially perfused with PBS. Brains were collected and placed on a 1 mm sagittal brain block. Brains were sliced at the midline and 3 mm right of the midline. One hemisphere was fixed in 4% PFA and sectioned at 50 microns on a vibratome. Immunohistochemistry was performed on free-floating sections. For mitochondrial ATP synthase subunit C (SubC), glial fibrillary acidic protein (GFAP), and cluster of differentiation 68 (CD68) immunolabeling, primary antibodies included anti-SubC (Abcam, ab181243; 1:1000), anti-GFAP (Dako, Z0334; 1:5000), anti-CD68 (AbD Serotec, MCA1957; 1:2000), and secondary antibodies included anti-rabbit biotinylated (Vector Labs, BA-1000 1:1000) and anti-rat (Vector Labs, BA-9400 1:1000). Coverslips were mounted on slides using antifade-mounting media and were stored in the dark before imaging. Sections were imaged and analyzed using an Aperio Digital Pathology Slide Scanner (AT2) and associated software. Images were extracted from S1BF of the somatosensory cortex and the VPM/VPL of the thalamus, with multiple images taken of multiple tissues from each animal.
• An increase in percent area or total area of positive autofluorescent storage material (ASM) signal in untreated NCL MEFs or PNCs relative to age-matched, wild type MEFs or PNCs is considered an increase in the accumulation of autofluorescent storage material, reflecting disease-related lysosomal dysfunction. • A decrease in percent area or total area of positive autofluorescent storage material signal in AF38469 treated MEFs and PNCs relative to age-matched, vehicle treated MEFs and PNCs is considered a reduction in the accumulation of autofluorescent storage material and thus a decrease in disease-related lysosomal dysfunction. • LysoTracker™ is an acidophilic dye that labels lysosomes and accumulation increases with an increase in lysosome size or number. Cell and mouse models of lysosomal storage disorders often have increased accumulation of lysosomes and therefore have a stronger LysoTracker™ signal. […]

Entries after “also recorded” stand apart in the source; their conditions may differ.

`Cc1cccc(NC(=O)c2ccc(C(F)(F)F)cc2C(=O)O)n1` [AF38469, 2-((6-methylpyridin-2-yl)carbamoyl)-5-(trifluoromethyl)benzoic acid]: the LysoTracker signal entry in test [1] (40 nM and 400 nM, Cln2^R207X PNCs) was “had no impact”; in test [1] (40 nM, 400 nM, 4 μM, Cln1^R151X and Cln6^nclf PNCs, DIV7), “significantly reduced”; in test [1] (40 nM, Cln3^Δex7/8 PNCs) it was “significantly increased”; in test [1] (40 nM, Cln8^mnd PNCs), “significantly increased”; in test [1] (400 nM, Cln3^Δex7/8 PNCs), “significantly reduced”; in test [1] (400 nM, Cln8^mnd PNCs), “significantly increased”. The LysoTracker signal result in test [1] (4 μM, Cln2^R207X PNCs) is “significantly reduced”; in test [1] (4 μM, Cln3^Δex7/8 PNCs), “had no impact”; in test [1] (4 μM, Cln8^mnd PNCs), “had no impact”. Besides, the “accumulation of autofluorescent storage material (ASM)” value (“accumulation” for short) is reported as “significantly reduced” in test [2] (40 nM, 400 nM, 4 μM, Cln1^R151X, Cln2^R207X, Cln3^Δex7/8, Cln6^nclf, Cln8^mnd MEFs, DIV7) and “did not have an impact” in test [2] (Cln11^−/− MEFs, DIV7).

`CC[C@H](C)[C@H](N)C(=O)NCCN1CCOCC1` [LM11A-31, N-[2-(morpholin-4-yl)ethyl]-L-isoleucinamide]: the LysoTracker signal entry was “significantly reduced” in test [1] (LM11A-31 100 nM, Cln2^R207X PNCs) and “significantly reduced” in test [1] (LM11A-31 1 μM, Cln6^nclf PNCs). The “accumulation” value is “did not reduce” in test [2] (LM11A-31 100 nM, 1 μM, 10 μM, Cln1^R151X, Cln6^nclf, Cln8^mnd MEFs, DIV7); “trended towards reductions; also recorded: decreasing trend” in test [2] (LM11A-31 (mid to high doses), Cln2^R207X and Cln3^Δex4/8 (so in the source) MEFs).

semaglutide: the “Lysotracker signal (as printed, FIG. 19B)” value in test [1] (semaglutide 10 nM, 100 nM, 1 μM, Cln2^R207X and Cln6^nclf PNCs) is reported as “significantly reduced”. For the same compound, the LysoTracker signal result in test [1] (semaglutide 10 nM, 100 nM, 1 μM, Cln3^Δex7/8 PNCs) is given as “had no impact”; in test [1] (semaglutide 10 nM, 100 nM, 1 μM, Cln6^nclf and Cln8^mnd PNCs) it was “significantly reduced”; in test [1] (semaglutide 10 nM, 1 μM, Cln2^R207X PNCs) it was “significantly reduced”; in test [1] (semaglutide 10 nM, Cln1^R151X PNCs), “significantly elevated”; in test [1] (semaglutide 100 nM, 1 μM, Cln1^R151X PNCs), “significantly reduced”; in test [1] (semaglutide 100 nM, Cln2^R207X PNCs), “significantly elevated”. In addition, the “accumulation” value in test [2] (semaglutide 10 nM, 100 nM, 1 μM, Cln1^R151X, Cln2^R207X, Cln3^Δex7/8, Cln6^nclf, Cln8^mnd MEFs) was “had no impact”.
